Assay results reported in patent US6723702B2, “Use of relaxin treat diseases related to vasoconstriction” (RAS Medical, Inc., priority 2000, dated 2004).

Key:
[1] = system: ovariectomized or sham ovariectomized rats; test: Chronic infusion of rhRLX on renal function in ovariectomized or sham ovariectomized rats; assay type: in vivo, rat; settings: day 5 of infusion 4 μg/hour; comparable in ovariectomized and sham ovariectomized rats
From the text: The details of the surgical procedures have been previously described. See, e.g., Conrad (1984) Kidney Int. 26:24-29; and Danielson and Conrad (1995) J. Clin. Invest. 96:482-490. […] The bladder catheter, a silastic-covered stainless steel cannula, was sewn into the urinary bladder with a purse-string suture and exteriorized through the ventral abdominal wall. This catheter was then plugged allowing the animal to urinate through the urethra while in her home cage. In the ovariectomized and sham ovariectomized animals, the ovaries were first ligated and then excised, or briefly manipulated, respectively, via a small incision made in the lateral abdominal wall immediately after the insertion of vascular and bladder catheters. All surgeries were conducted using aseptic technique. At least a 7-day recovery period was allowed before experimentation.
Six female rats each were subjected either to ovariectomy or sham ovariectomy immediately after the implantation of vascular and bladder catheters. Seven days later, renal function and MAP were assessed before the insertion of osmotic minipumps containing rhRLX. On day 5 of the relaxin infusion (4 μg/hour), renal function and MAP were again determined.

[2] = system: ischemic wound on the back region of rats; test: Ischemic H-shaped double flap wound model; assay type: in vivo, rat
Description: The effect of rhRLX on normal and ischemic wound healing in two rat models of dermal wound healing was evaluated. RhRLX in vehicle, or vehicle alone, was delivered by subcutaneous infusion to Sprague-Dawley rats using an implanted ALZET7 osmotic pump (Alza Corp., Mountain View, Calif.).
In the second model, a standardized ischemic, H-shaped, double flap wound was made on the back region. The area of surface necrosis was measured on day 14 and day 21.
In the third animal model, a standard ischemic wound (H-shaped, 8 cm long and 2 cm wide) was created on the back region of rats. Perforating branches of the central vein were cut to ensure that the wound was ischemic. The resulting wound is then ischemic, but not completely necrotic. On day 14 and day 21, the surface necrosis was measured. RhRlx treatment (0.2 mg/kg via minipump) reduced the surface necrotic area in the flap region, compared to vehicle treatment (at day 14: vehicle 195 mm^2, rhRlx 123 mm^2; at day 21 vehicle 180 mm^2, rhRlx 103 mm^2).

endothelial cells = test: Other aspects of endothelial cell phenotype (collagen, metalloproteinase/TIMP-1, invasion, tube formation, chemotaxis); assay type: cell-based
Description: Relaxin was then assayed for the ability to induce proliferation of endothelial cells directly. Relaxin's potential mitogenic effect was tested on human primary umbilical vein, aortic, foreskin, and pulmonary endothelial cells, as well as rat aortic endothelial cells. […] Alterations in other aspects of endothelial cell phenotype that are believed to correlate with angiogenesis were also tested. Relaxin had no effect on collagen expression, judged by SDS-PAGE of ^3H-proline-labeled cellular proteins; or metalloproteinase or tissue inhibitor of metalloproteinase-1 secretion, assessed by gelatin zymography. […] Therefore, relaxin had no apparent effect directly on endothelial cells.

db/db mice = test: Full thickness wound healing in db/db mice; assay type: in vivo, mouse
Description: To determine whether rhRlx would improve healing in this model of impaired healing, standardized full thickness (1.5 cm×1.5 cm) wounds were made on the back of db/db mice (Jackson Laboratories, Bar Harbor, Me.). Mice were treated continuously for 21 days with rhRlx via a subcutaneously implanted Alzet pump at a dose of either 0.1 mg/kg/day or 0.2 mg/kg/day. Wound areas were measured in the course of the study. Healing is presented as wound area on day 14 relative to the original size of the wound on day 0 and is calculated as: % of original wound area=[Area on day 14/area on day 0]×100. […] Wound closure was expressed as “% of original wound area.” There were 8-20 animals per group. Wound closure was 91.4% in control group vs. 64% in the relaxin-treated group (p<0.05 by Student-Newman-Kuels test). The differences in the extent of wound healing were small among vehicle control and low dose of rhRlx treatment as well as PDGF (5 μg/wound/day for 5 days) treated mice.
At day 21-post surgery, the wounds were also excised and fixed in formalin prior to paraffin embedding. Sections from the middle of the wound were stained with Masson's trichrome and evaluated by two investigators. […] Inflammatory cell accumulation was present at the wound edges.
Neovascularization is a key component of granulation tissue formation. New blood vessel formation is stimulated by a variety of growth factors including bFGF, and VEGF. […] Immunohistochemical staining of the midsection of full thickness wounds using polyclonal antibody to von Willebrand factor VIII-related antigen was used to identify new blood vessels in the wounds.

rhRLX: recombinant human relaxin, identical in amino acid sequence to the product of the human H2 gene; A chain of 24, B chain of 29 amino acids
effect on ERPF [1]: profound rise | effect on ERVR [1]: fall | effect on GFR [1]: profound rise | surface necrotic area in the flap region ([2]; 0.2 mg/kg via minipump, day 14): 123 mm^2 | surface necrotic area in the flap region ([2]; 0.2 mg/kg via minipump, day 21): 103 mm^2 | surface necrotic area in the flap region ([2]; Example 4, day not stated): 123 mm^2 | expression of NO synthase on vascular endothelium ([2]; immunohistochemical staining, systemic treatment): enhances | chemotaxis in vitro (endothelial cells): nor did it induce chemotaxis | collagen expression (endothelial cells; SDS-PAGE of 3H-proline-labeled cellular proteins): no effect | ability of endothelial cells to invade the substrate or to form tube structures (endothelial cells; Type I collagen or Matrigel substrate): no effect | metalloproteinase or tissue inhibitor of metalloproteinase-1 secretion (endothelial cells; gelatin zymography): no effect | Wound closure, % of original wound area (db/db mice; 0.2 mg/kg/day, day 14): 64% | staining for von Willebrand factor VIII-related antigen (new blood vessels) (db/db mice; compared to wounds of vehicle treated animals): stronger positive staining | wound histology, Masson's trichrome (db/db mice; day 21-post surgery): thick, cellular and vascular granulation tissue | differences in the extent of wound healing vs vehicle control (db/db mice; low dose of rhRlx (0.1 mg/kg/day)): small
